In PubChem BioAssay (NCI):
Several values for one entry are separate records, joined by “and”; a condition that tells them apart may be missing. Equal values may be shown once.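 Exposure lasted 48 hours, with cells grown in 96-well plates and compounds tested at five concentrations. Here, GI50 denotes the concentration required for 50% inhibition of growth. TGI: total growth inhibition.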

Columns and labels:
Test in all cases: DTP human tumour cell line panel, 48 h
[1] = tested on: SN12C renal
[2] = tested on: IGROV1 ovarian
[3] = tested on: K-562 leukemia
[4] = tested on: COLO 205 colon
[5] = tested on: SK-OV-3 ovarian
[6] = tested on: MCF7 breast
[7] = tested on: OVCAR-3 ovarian
[8] = tested on: HOP-92 NSCLC
[9] = tested on: SW-620 colon
[10] = tested on: UO-31 renal
[11] = tested on: HCT-15 colon
[12] = tested on: MDA-MB-435
[13] = tested on: TK-10 renal
[14] = tested on: RXF 393 renal
[15] = tested on: T-47D breast

| SMILES | TGI [1] | TGI [2] | TGI [3] | TGI [4] | TGI [5] | TGI [6] | TGI [7] | TGI [8] | TGI [9] | TGI [10] | TGI [11] | TGI [12] | TGI [13] | TGI [14] | TGI [15] | GI50 [6] |
| --- | --- | --- | --- | --- | --- | --- | --- | --- | --- | --- | --- | --- | --- | --- | --- | --- |
| Nc1nc2ncc(SCc3ccc(C(=O)NC(CCC(=O)O)C(=O)O)cc3)cc2c(=O)[nH]1 (configuration not stated) | > 100 µM | > 100 µM | > 100 µM | > 100 µM | > 100 µM | > 100 µM | > 100 µM | > 100 µM | > 100 µM | > 100 µM | > 100 µM | > 100 µM | > 100 µM |  |  |  |
| Cc1c(Cl)cccc1NC(=O)C(=O)C1C(=O)CC(C)(C)CC1=O | > 100 µM | > 100 µM | > 100 µM | > 100 µM | > 100 µM |  | > 100 µM | > 100 µM | > 100 µM | > 100 µM | > 100 µM |  | > 100 µM | > 100 µM |  |  |
| c1ccc([P+](CCNCCNCC[P+](c2ccccc2)(c2ccccc2)c2ccccc2)(c2ccccc2)c2ccccc2)cc1 | > 100 µM | > 100 µM |  | > 100 µM | > 100 µM | > 100 µM | > 100 µM |  | > 100 µM | > 100 µM | > 100 µM | > 100 µM | > 100 µM | > 100 µM | > 100 µM |  |
| CCOP(=O)(OCC)[C@H](O)c1ccsc1 | > 100 µM | > 100 µM | > 100 µM | > 100 µM | > 100 µM | > 100 µM |  |  | > 100 µM | > 100 µM | > 100 µM | > 100 µM | > 100 µM | > 100 µM | > 100 µM |  |
| COc1ccc(/C(=C/n2ccnc2)C(=O)c2ccc(OC)c(OC)c2)cc1 | > 100 µM |  | > 100 µM | > 100 µM |  |  | > 100 µM | > 100 µM | > 100 µM | > 100 µM | > 100 µM |  | > 100 µM |  |  |  |
| CCSc1nnc(CSc2nc(-c3ccccc3)c(-c3ccccc3)[nH]2)n1-c1ccccc1 | 29.7 µM | 42.3 µM | 56.3 µM | 29.5 µM | 60.8 µM |  | 35.2 µM | 38.5 µM | 30.2 µM | 33 µM | 36 µM |  | 57.1 µM | 43.5 µM |  |  |
| N#Cc1c(N)[nH]c(=S)c(C#N)c1-c1cccc(Cl)c1 | 56.3 µM | > 100 µM | > 100 µM | 40.9 µM |  | > 100 µM | > 100 µM | > 100 µM | > 100 µM | > 100 µM | > 100 µM | 49.7 µM | > 100 µM | 46.6 µM |  |  |
| N#C/C(=C\NC(=S)Nc1ccc(S(=O)(=O)Nc2ccccn2)cc1)C(N)=O | > 100 µM | > 100 µM | > 100 µM | > 100 µM | > 100 µM | > 100 µM | > 100 µM | > 100 µM | > 100 µM | > 100 µM | > 100 µM | > 100 µM | > 100 µM | > 100 µM |  |  |
| C[N+](C)(C)CC(=O)N/N=c1\cc(C(=O)Nc2ccc(N=O)cc2C#N)oc2cc(O)ccc12 | > 100 µM | > 100 µM | > 100 µM | > 100 µM | > 100 µM |  | > 100 µM | > 100 µM | > 100 µM | > 100 µM | > 100 µM |  | > 100 µM | > 100 µM |  |  |
| CCOC(=O)C1=C(C)N(c2ccccc2)C2=C(C(=O)N(c3ccccc3)C2c2ccccc2)C1c1ccccc1 (configuration not stated) | > 100 µM | > 100 µM | > 100 µM | > 100 µM | > 100 µM |  | > 100 µM | > 100 µM | > 100 µM | > 100 µM |  |  | > 100 µM | > 100 µM |  |  |
| COc1ccc(C2C(Cl)C(=O)N2NC(=O)c2ccc(NC(C)=O)cc2)cc1 (configuration not stated) | > 100 µM | > 100 µM | > 100 µM | > 100 µM | > 100 µM |  | > 100 µM | > 100 µM | > 100 µM | > 100 µM | > 100 µM |  | > 100 µM | > 100 µM |  |  |
| COC1(C)CC2N(C(=O)c3ccccc3)N=C(c3ccccc3)CC2(C)O1 (configuration not stated) | > 100 µM | > 100 µM | > 100 µM |  | > 100 µM |  | > 100 µM | > 100 µM | > 100 µM | > 100 µM | > 100 µM |  |  |  |  |  |
| COc1ccc(-c2c(C#N)c(N)n(C3OC(CO)C(O)C(O)C3O)c(=S)c2C#N)cc1 (configuration not stated) | > 100 µM | > 100 µM | > 100 µM |  | > 100 µM | > 100 µM | > 100 µM | > 100 µM | > 100 µM | > 100 µM | > 100 µM |  | > 100 µM | > 100 µM | > 100 µM | > 100 µM and 38.4 µM |
| O=C1CC2(C[C@@H]3CCCCCCCCC[C@@H](C3)C2)N1 (some centres not stated) | 30.8 µM | 27.9 µM | 55.1 µM | 30.7 µM | 28.4 µM |  |  | 23 µM | 33.8 µM | 27.8 µM | 34 µM |  | 31.2 µM | 30.9 µM |  |  |
| COC(=O)c1cc(CC(C)C)c2c(c1)[nH]c1ccccc12 | > 100 µM | > 100 µM | > 100 µM | > 100 µM | > 100 µM |  | > 100 µM | > 100 µM | > 100 µM | > 100 µM | > 100 µM |  | > 100 µM |  |  |  |
| Cc1cc(-c2nc3ccccc3s2)ccc1NS(=O)(=O)O | > 100 µM | > 100 µM | > 100 µM | > 11.9 µM | > 100 µM |  | > 100 µM | > 100 µM | > 100 µM | > 100 µM | > 100 µM | > 100 µM | > 100 µM | > 100 µM | > 100 µM |  |
| CC1C(c2cc(C(C)(C)C)c(O)c(C(C)(C)C)c2)c2cc3c(cc2OC1N1CCOCC1)OCO3 (configuration not stated) | > 100 µM | > 100 µM | > 100 µM | > 100 µM |  | > 100 µM | 35 µM |  | > 100 µM | 29.8 µM |  | 68.2 µM | 31.2 µM |  | > 100 µM |  |
| CCCCc1c(O)nc(Nc2nc3ccccc3[nH]2)[nH]c1=O | > 100 µM | > 100 µM | > 100 µM | > 100 µM | > 100 µM | > 100 µM | > 100 µM |  | > 100 µM |  | > 100 µM | > 100 µM | > 100 µM | > 100 µM | > 100 µM |  |
